In US9464306B2, “Method for producing L-amino acid” (KANEKA CORPORATION, priority 2008, dated 2016):
Read-outs that look alike come from different tables or passages of the source.

Experiments:
[1] = Dissolved concentration of the L-amino acid in the reaction mixture after completion of the reaction (HPLC); conditions: substrate solution pH 8, 45° C.
Description: (§1) Here, the “dissolved concentration” refers to percentage (%) by weight of an amino acid dissolvable in the reaction mixture after completion of the reaction, and can be measured by the following method. That is, the L-amino acid is added to the reaction mixture after completion of the reaction until the L-amino acid is no longer dissolved. After that, the mixture is centrifuged, and the resulting supernatant is filtered. The amino acid present in the filtrate is quantitatively analyzed by high performance liquid chromatography, and the percentage (%) by weight of the amino acid is calculated.

[2] = pH 8
Description: as §1

[3] = L-amino acid dissolvable in reaction mixture after reaction of the N-succinyl-DL-amino acid with liquid cultures of E. coli HB101 (pNHK) and E. coli HB101 (pNIG)

Molecule | dissolved concentration [2] [% by weight] | dissolved concentration [1, 3] [% by weight] | dissolved concentration ([1]; L-amino acid dissolvable in reaction mixture after reaction with liquid culture of E. coli HB101 (pNIGHK)) [% by weight]
N[C@@H](Cc1ccccc1)C(=O)O [L-phenylalanine, reference compound] | – | 4 | –
C=CCCCCC[C@H](N)C(=O)O [L-6-heptenylglycine] | – | ≤ 0.5 | ≤ 0.5
N[C@@H](Cc1cccc(F)c1)C(=O)O [L-3-fluorophenylalanine] | – | ≤ 0.5 | –
N[C@@H](Cc1ccc(Br)cc1)C(=O)O [L-4-bromophenylalanine] | – | ≤ 0.5 | –
L-2-indanylglycine | ≤ 0.5 | – | –
